Source: PMC2518627 (Analytical Biochemistry, 2007)

Columns and labels:
[1] = system: NAADP binding protein from sea urchin (L. pictus) egg homogenate; assay: NAADP radioreceptor binding assay (displacement of [32P]NAADP); set-up: species or system Lytechinus pictus; conditions: for IC50: read-out: IC50 (displacement of [32P]NAADP binding), 1% sea urchin egg homogenate, 25 °C
Protocol: First, 25 μl of test sample was added to each tube. Second, 125 μl of 1% (v/v) sea urchin egg homogenate in intracellular medium was added and allowed to incubate for 10 min at 25 °C. […] The tubes were then incubated at room temperature for a further 10 min at 25 °C. Note that the order of addition is important to maximize the sensitivity of the assay. […] Washing was carried out three times using 1 ml of a buffer containing 20 mM Hepes and 500 mM potassium acetate (pH 7.4).
Radioactivity was determined by placing the filter circles in a scintillation vial containing 10 ml H2O, followed by Cerenkov scintillation counting.
Filter papers were wrapped in cling film and then placed in a cassette to expose a storage phosphor screen (GE Healthcare) for 1 to 4 h. The screen was then scanned using a Typhoon 9400 scanner (GE Healthcare) at a resolution of 100 μm. The resulting image was then analyzed using ImageQuant (GE Healthcare).
Samples are then filtered using a cell harvester. […] Sample concentrations may then be determined from the standard curve.

[2] = Stability of nucleotides under different pH conditions (HPLC); assay type: physicochemical; conditions: 1 mM, 6 h
Protocol: All high-performance liquid chromatography (HPLC) was carried out on an anion exchange resin (AGMP1, Bio-Rad, USA), packed in 150 × 2.5-mm Omnifit columns, using a concave upward gradient of trifluoroacetic acid (TFA), delivered by a Waters 600e pump, as described previously. Detection was performed by a UV detector (Waters 2487, UK) at 254 nm.
Samples were then neutralized with their base equivalence of either Tris base (for acidic solutions) or Hepes acid (for basic solutions) as applicable. Samples were analyzed by HPLC as described above, with elution times being determined from standard runs with known compounds.

human NAD kinase = system: human NAD kinase; set-up: method as in PMID 11594753; conditions: cited from earlier work
pancreatic acinar cells = assay: NAADP levels in pancreatic acinar cells preincubated with BAPTA-AM; assay type: cell-based, CD1 mice
Protocol: Cells may be prepared in any suitable manner; gametes, isolated cells, chopped tissue, and cells in culture all have been used successfully. Cells were then exposed to agonist, and at the appropriate time points the reaction in cells was stopped by the addition of 0.75 M ice-cold HClO4 added as an equal volume of 1.5 M solution. Sonication (Jencons Vibracell at amplitude 60) was carried out to disrupt the cells, which were then placed on ice for 15 min. The denatured protein was pelleted by centrifugation at 9000g for 10 min and stored at –80 °C for later analysis. Supernatant was neutralized with 1 M KHCO3, added as an equal volume of 2 M solution, and vortexed. The resulting KClO4 precipitate was removed by centifugation at 9000g for 10 min. Samples were stored at –80 °C for later analysis.
Pancreatic acinar cells were prepared as described previously. Briefly, pancreata were excised from 8- to 10-week-old male CD1 mice and were finely chopped before incubation with 200 U/ml collagenase for 15 min at 37 °C. The digested tissue was then washed and resuspended to 10 ml with buffer of the following composition: 140 mM NaCl, 4.7 mM KCl, 1 mM MgCl2, 1 mM CaCl2, 10 mM Hepes, and 10 mM glucose (pH 7.4). Protease inhibitor cocktail tablets (EDTA free, Roche Diagnostics, UK), one tablet per 50 ml, were added to this solution before use. The suspension was triturated, and supernatant that contained dispersed cells was collected into a new tube. After centrifugation at 800g for 3 min at 4 °C, the supernatant was discarded and the cell pellet was resuspended for further trituration and centrifugation. The resulting supernatant was discarded, and the cells were kept in buffer supplemented with 1 mM CaCl2 at room temperature on a rocking board for 30 min before use. Prior to use, the cells were centrifuged at 800g for 1 min at 4 °C. The cells were suspended in the above buffer without the addition of protease inhibitors. Pancreatic acinar cells were aliquoted into tubes. […]

[3] = maximum concentration tested 100 μM
[4] = maximum concentration tested 2 mM
[5] = 100 pM CCK after preincubation with 20 μM BAPTA-AM

Displacement of NAADP at the maximum concentration tested [1, 3]	Molecule	IC50 [1] [µM]	further results
failed to displace	Nc1ncnc2c1ncn2[C@@H]1O[C@H](COP(=O)(O)OP(=O)(O)OP(=O)(O)O)[C@@H](O)[C@H]1O [ATP]	–	–
–	N=c1c2ncn3c2ncn1[C@@H]1O[C@H](COP(=O)(O)OP(=O)(O)OC[C@H]2O[C@@H]3[C@H](O)[C@@H]2O)[C@@H](O)[C@H]1O [cADPR, cyclic ADP ribose]	2.5	–
failed to displace	Nc1ncnc2c1ncn2[C@@H]1O[C@H](COP(=O)(O)O)[C@@H](O)[C@H]1O [AMP]	–	–
–	NC(=O)C1=CN([C@@H]2O[C@H](COP(=O)(O)OP(=O)(O)OC[C@H]3O[C@@H](n4cnc5c(N)ncnc54)[C@H](OP(=O)(O)O)[C@@H]3O)[C@@H](O)[C@H]2O)C=CC1 [NADPH]	6.3	Stability at pH 7.2 ([2]; 50 mM Hepes (pH 7.2)): remained stable; Stability at pH 0.88 ([2]; 0.75 M HClO4 (pH 0.88)): became unstable; Stability at pH 8.6 ([2]; 0.75 M HClO4/1 M KHCO3 (pH 8.6)): became unstable; Stability at pH 11 ([2]; 1 M K2CO3 (pH 11)): similarly unstable; Stability at pH 9.1 ([2]; 1 M KHCO3 (pH 9.1)): became unstable
failed to displace	O=P(O)(O)O[C@@H]1[C@H](O)[C@H](O)[C@@H](OP(=O)(O)O)[C@H](OP(=O)(O)O)[C@H]1O [IP3, D-myo-inositol 1,4,5-trisphosphate]	–	–
–	nicotinic acid adenine dinucleotide phosphate [NAADP]	0.00054	–
–	nicotinamide adenine dinucleotide phosphate [NADP]	21	–
–	Nc1ncnc2c1ncn2[C@@H]1O[C@H](COP(=O)(O)OP(=O)(O)OC[C@H]2O[C@@H]([n+]3cccc(C(=O)O)c3)[C@H](O)[C@@H]2O)[C@@H](O)[C@H]1O [NAAD, nicotinic acid adenine dinucleotide]	51	–
failed to displace	Nc1ncnc2c1ncn2[C@@H]1O[C@H](COP(=O)(O)OP(=O)(O)OC[C@H]2OC(O)[C@H](O)[C@@H]2O)[C@@H](O)[C@H]1O (stereo partly shown) [ADPR]	–	–
failed to displace	Nc1ncnc2c1ncn2[C@@H]1O[C@H](COP(=O)(O)OP(=O)(O)O)[C@@H](O)[C@H]1O [ADP]	–	–
–	NC(=O)c1ccc[n+]([C@@H]2O[C@H](COP(=O)([O-])OP(=O)(O)OC[C@H]3O[C@@H](n4cnc5c(N)ncnc54)[C@H](O)[C@@H]3O)[C@@H](O)[C@H]2O)c1 [NAD, nicotinamide adenine dinucleotide]	–	Km (human NAD kinase): 800 µM; Displacement of NAADP at the maximum concentration tested [1, 4]: failed to displace
–	NC(=O)C1=CN([C@@H]2O[C@H](COP(=O)(O)OP(=O)(O)OC[C@H]3O[C@@H](n4cnc5c(N)ncnc54)[C@H](O)[C@@H]3O)[C@@H](O)[C@H]2O)C=CC1 [NADH]	–	Displacement of NAADP at the maximum concentration tested [1, 4]: failed to displace
–	CC(=O)OCOC(=O)CN(CC(=O)OCOC(C)=O)c1ccccc1OCCOc1ccccc1N(CC(=O)OCOC(C)=O)CC(=O)OCOC(C)=O [BAPTA-AM, 1,2-bis(2-aminophenoxy)ethane-N,N,N′,N′-tetraacetic acid tetrakis (acetoxymethyl) ester]	–	Change in NAADP levels (pancreatic acinar cells; 20 μM BAPTA-AM alone, followed by control buffer): no change
–	cholecystokinin [CCK]	–	Change in NAADP levels (pancreatic acinar cells; [5]): continuous increase; Duration of increase in NAADP levels (pancreatic acinar cells; [5]): at least 20 min
failed to displace	O=C(O)c1cccnc1 [nicotinic acid]	–	–
